Reference: patent publication US10640507B2, “PBD antibacterial agents” (KING'S COLLEGE LONDON, priority 2015, dated 2020)
In brackets after ≈: the same amount, converted by molar mass. Where two headings read alike, the source gives them in different places.

Assays:
PA01 = test: Effect of efflux pump inhibitors (EPIs) on MIC; format: cell-based, P. aeruginosa; settings: for +PABN MIC: PABN at 25 μg/ml; for MIC: Pseudomonas aeruginosa
Procedure: (§1) 1. Grow up cultures of bacterial strains to be tested overnight.
(§2) 2. Dilute down overnight cultures to concentration of 1×10^6 bacteria/ml (OD0.01) in Tryptic soy broth (TSB).
(§3) 3. Add 100 μl of TSB media to column 2-column 12 in 96 well plate (keeping column 1 clear).
(§4) 4. Make up compound to a concentration of 64 μg/ml in water.
(§5) 5. Add 100 μl of antibiotic solution to the 1st and 2nd columns.
(§6) 6. Using a multichannel pipette take 100 μl from the 2nd column wells and pipette into 3rd column wells and repeat down the 96 well plate (remember to include controls i.e. uninfected media and media with no antibiotic).
(§7) 7. To each well (except uninfected control row H) add 50 μl/well of EPI at 4× final concentration in TSB.
(§8) 9. In wells used to test the effect of the EPI carbonyl cyanide 3-chlorophenylhydrazone (CCCP) the CCCP is added at 10 μg/ml final concentration.
(§9) 10. In wells used to test the effect of the EPI phenylalanine-arginine β-naphthylamide (PABN) the PABN is added at 25 μg/ml final concentration.
(§10) 11. In wells used to test the effect of the PABN+Mg, the PABN is added at 25 μg/ml final concentration, with 1 mM MgSO4 in TSB.
(§11) 12. Wrap plate with parafilm to prevent evaporation.
(§12) 13. Leave at desired temperature (37° C. unless specified elsewhere) for 20 hours.
(§13) 14. Next day check plates for growth and measure optical density (i.e. absorbance) at a wavelength of 600 nm (OD600).
(§14) Compound KMR-14-33 was tested against a range of bacterial species using the above protocol. Compound PP-A148 was also tested against a more limited range of bacterial species using the above protocol. For KMR-14-33 measurements were carried out for the compound alone, for the compound plus CCCP, for the compound plus PABN and for the compound plus PABN and plus Mg. For PP-A148 measurements were carried out for the compound alone and for the compound plus PABN.

NCTC 13437 = test: Effect of efflux pump inhibitors (EPIs) on MIC; format: cell-based, P. aeruginosa; settings: for +PABN MIC: PABN at 25 μg/ml; for MIC: Pseudomonas aeruginosa
Procedure: as §1, §2, §3, §4, §5, §6, §7, §8, §9, §10, §11, §12, §13, §14

P. aeruginosa NCTC 13437 = test: General MIC protocol, Gram negative; format: cell-based
In short: (§15)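 Compound was prepared at 64 μg/ml in water, serially halved across the plate and diluted twofold again by added inoculum. Final bacterial density was 5×10^5/ml in TSB. After 20 hours at 37° C, wells were scored for growth by OD600.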

A. baumannii NCTC 17978 = test: General MIC protocol, Gram negative; format: cell-based; settings: Acinetobacter baumannii, NCTC17978
In short: as §15

K. pneumonia NCTC 13438 = test: General MIC protocol, Gram negative; format: cell-based; settings: Klebsiella pneumoniae, NCTC13438
In short: as §15

K. pneumonia KP16 = test: General MIC protocol, Gram negative; format: cell-based; settings: Klebsiella pneumoniae, KP16
In short: as §15

K. pneumonia NCTC 51851 = test: General MIC protocol, Gram negative; format: cell-based; settings: Klebsiella pneumoniae, NCTC51851
In short: as §15

K. pneumonia M6 = test: General MIC protocol, Gram negative; format: cell-based; settings: Klebsiella pneumoniae; KP-M6
In short: as §15

K. pneumonia NCTC 13443 = test: General MIC protocol, Gram negative; format: cell-based; settings: Klebsiella pneumoniae, NCTC13443
In short: as §15

A. baumannii AYE = test: General MIC protocol, Gram negative; format: cell-based; settings: Acinetobacter baumannii
In short: as §15

K. pneumonia NCTC 13368 = test: General MIC protocol, Gram negative; format: cell-based; settings: Klebsiella pneumoniae, NCTC13368
In short: as §15

[1] = system: A. baumannii - NCTC 17978; test: Time kill kinetics; format: cell-based; settings: drug at 4×MIC
Procedure: 1. Grow bacteria overnight.
2. Subculture into an autoclaved conical flask containing 10 ml of TSB to an OD of 0.01 (˜1×10^7 Cfu/ml for KP-M6).
4. Take aliquots (100 μl) at timepoints (0, 1, 2, 4, 6, 24 hours) and carry out a serial dilution in PBS (to remove drug and to dilute bacteria to countable numbers).
5. Use the serial dilution to perform a Miles Misra—i.e. Add 3×10 μl spots of each dilution onto an agar plate. Incubate overnight and count colonies on spots in the morning.
6. Control: Subculture bacteria alongside samples but with no antibiotic added. Take aliquots from this at every time point (0, 1, 2, 4, 6, 24 hours) and perform Miles Misra on these too (as detailed in points 4 and 5 above).
7. After the first experiment, if the counts seen on Miles-Misra were zero, total viable counts were determined by spreading 200 μl in a streak down the centre of a TSB agar plate, waiting for the liquid to be absorbed and then spreading over the plate and checking for growth inhibition at the sight of the original streak.
8. The compound is considered bactericidal if the inoculum was reduced >3 log10 CFU/ml and bacteriostatic if inoculum was reduced by 0-3 log10 CFU/ml.
Three measurements were taken for each compound at each time point. These measurements were averaged and the standard deviation was also calculated.

[2] = no EPI, read-out: Control with no EPI MIC
[3] = NCTC13437, read-out: Control with no EPI MIC
[4] = Pseudomonas aeruginosa, NCTC13437

SMILES	+PABN MIC (PA01)	MIC (PA01; [2])	+PABN MIC (NCTC 13437; NCTC 13437)	MIC (NCTC 13437; [3])	MIC (P. aeruginosa NCTC 13437; [4])	MIC (A. baumannii NCTC 17978)	MIC (K. pneumonia NCTC 13438)	MIC (K. pneumonia KP16)	MIC (K. pneumonia NCTC 51851)	MIC (K. pneumonia M6)	MIC (K. pneumonia NCTC 13443)	MIC (A. baumannii AYE)	MIC (K. pneumonia NCTC 13368)	Average (CFU/ml) ([1]; time-point 1 hours)	n = 1 (Log CFU/ml) ([1]; time-point 1 hours)	n = 2 (Log CFU/ml) ([1]; time-point 1 hours)	Average (CFU/ml) ([1]; time-point 2 hours)	n = 1 (Log CFU/ml) ([1]; time-point 2 hours)	n = 2 (Log CFU/ml) ([1]; time-point 2 hours)	Average (CFU/ml) ([1]; time-point 4 hours)	other results
COc1cc2c(cc1OCCCC(=O)Nc1cc(C(=O)Nc3ccc4sc(C(=O)N(C)C)cc4c3)n(C)c1)N=C[C@@H]1CCCN1C2=O [KMR-14-33, (S)—N-(2-(dimethylcarbamoyl)benzo[b]thiophen-5-yl)-4-(4-((7-methoxy-5-oxo-2,3,5,11a-tetrahydro-1H-benzo[e]pyrrolo[1,2-a][1,4]-diazepin-8-yl)oxy)butanamido)-1-methyl-1H-pyrrole-2-carboxamide]	4 µg/mL	> 32 µg/mL	16 µg/mL	> 32 µg/mL	> 32 µg/mL	0.5 µg/mL (≈ 0.761 µM)	0.5 µg/mL (≈ 0.761 µM)	0.25 µg/mL (≈ 0.381 µM)	2 µg/mL (≈ 3.05 µM)	1 µg/mL (≈ 1.52 µM)	2 µg/mL (≈ 3.05 µM)	1 µg/mL (≈ 1.52 µM)	2 µg/mL (≈ 3.05 µM)	0 CFU/ml	0 Log CFU/ml	0 Log CFU/ml	0 CFU/ml	0 Log CFU/ml	0 Log CFU/ml	0 CFU/ml	+PABN + Mg MIC (PA01; PABN at 25 μg/ml with 1 mM MgSO4): 2 µg/mL; MIC (PA01; CCCP at 10 μg/ml, read-out: +CCCP MIC): > 32 µg/mL; +PABN + Mg MIC (NCTC 13437; NCTC 13437, PABN at 25 μg/ml with 1 mM MgSO4): 16 µg/mL; MIC (NCTC 13437; NCTC13437, read-out: +CCCP MIC): > 32 µg/mL; MIC (P. aeruginosa NCTC 13437; NCTC 13437, KMR-14-33 alone): 32 µg/mL (≈ 48.7 µM); n = 3 (Log CFU/ml) ([1]; time-point 1 hours): 0 Log CFU/ml; n = 3 (Log CFU/ml) ([1]; time-point 2 hours): 0 Log CFU/ml; n = 1 (Log CFU/ml) ([1]; time-point 4 hours): 0 Log CFU/ml; n = 2 (Log CFU/ml) ([1]; time-point 4 hours): 0 Log CFU/ml; n = 3 (Log CFU/ml) ([1]; time-point 4 hours): 0 Log CFU/ml; Average (CFU/ml) ([1]; time-point 6 hours): 0 CFU/ml; n = 1 (Log CFU/ml) ([1]; time-point 6 hours): 0 Log CFU/ml; n = 2 (Log CFU/ml) ([1]; time-point 6 hours): 0 Log CFU/ml; n = 3 (Log CFU/ml) ([1]; time-point 6 hours): 0 Log CFU/ml; Average (CFU/ml) ([1]; time-point 24 hours): 0 CFU/ml; n = 1 (Log CFU/ml) ([1]; time-point 24 hours): 0 Log CFU/ml; n = 2 (Log CFU/ml) ([1]; time-point 24 hours): 0 Log CFU/ml; n = 3 (Log CFU/ml) ([1]; time-point 24 hours): 0 Log CFU/ml
O=C(O)c1cn(C2CC2)c2cc(N3CCNCC3)c(F)cc2c1=O [CIP, ciprofloxacin, reference compound]	–	–	–	–	–	–	–	–	–	–	–	–	–	7000 CFU/ml	19000 Log CFU/ml	0 Log CFU/ml	584 CFU/ml	1500 Log CFU/ml	0 Log CFU/ml	10.7 CFU/ml	n = 1 (Log CFU/ml) ([1]; time-point 4 hours): 0 Log CFU/ml; n = 2 (Log CFU/ml) ([1]; time-point 4 hours): 30 Log CFU/ml; Average (CFU/ml) ([1]; time-point 6 hours): 0 CFU/ml; n = 1 (Log CFU/ml) ([1]; time-point 6 hours): 0 Log CFU/ml; n = 2 (Log CFU/ml) ([1]; time-point 6 hours): 0 Log CFU/ml; Average (CFU/ml) ([1]; time-point 24 hours): 4 CFU/ml; n = 1 (Log CFU/ml) ([1]; time-point 24 hours): 10 Log CFU/ml; n = 2 (Log CFU/ml) ([1]; time-point 24 hours): 0 Log CFU/ml
COc1cc2c(cc1OCCCC(=O)Nc1cc(C(=O)Nc3ccc4oc(C(=O)N5CCSCC5)cc4c3)n(C)c1)N=C[C@@H]1CCCN1C2=O [PP-A148, (S)-4-(4-((7-methoxy-5-oxo-2,3,5,11a-tetrahydro-1H-benzo-[e]pyrrolo[1,2-a][1,4]diazepin-8-yl)oxy)butanamido)-1-methyl-N-(2-(thiomorpholine-4-carbonyl)benzofuran-5-yl)-1H-pyrrole-2-carboxamide]	4 to 8 µg/mL	128 µg/mL (≈ 183 µM)	0.25 to 2 µg/mL	16 µg/mL (≈ 22.9 µM)	16 µg/mL (≈ 22.9 µM)	2 µg/mL (≈ 2.86 µM)	4 to 8 µg/mL (≈ 5.72 to 11.4 µM)	0.25 to 0.5 µg/mL (≈ 0.358 to 0.716 µM)	4 µg/mL (≈ 5.72 µM)	0.25 to 0.5 µg/mL (≈ 0.358 to 0.716 µM)	16 µg/mL (≈ 22.9 µM)	2 µg/mL (≈ 2.86 µM)	16 to 32 µg/mL (≈ 22.9 to 45.8 µM)	–	–	–	–	–	–	–	–
